Activity calls are given as the source filed them.
Tests used:
HEK293 [1] = assay: HEK cell cytotoxicity by LDH release, dose response, cytotoxicity control for IDE activator project, fluorescence, HEK cells (AID 588440); type: functional, cell-based; settings: Homo sapiens;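 note: cytotoxicity by LDH release measuring loss of membrane integrity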
HEK293 [2] = assay: optical interference in Abeta FP readout, dose response, artefact control for IDE activator project, biochemical, fluorescence polarization (AID 588442); type: functional, cell-based; settings: Homo sapiens
Insulin-degrading enzyme [3] = biological target: T1, Insulin-degrading enzyme (Homo sapiens, UniProt P14735); assay: activators of recombinant IDE enzyme, dose response, counter-screen for IDE activator project, biochemical, fluorescence polarization (AID 588681)
T1 sequence (P14735 whole entry): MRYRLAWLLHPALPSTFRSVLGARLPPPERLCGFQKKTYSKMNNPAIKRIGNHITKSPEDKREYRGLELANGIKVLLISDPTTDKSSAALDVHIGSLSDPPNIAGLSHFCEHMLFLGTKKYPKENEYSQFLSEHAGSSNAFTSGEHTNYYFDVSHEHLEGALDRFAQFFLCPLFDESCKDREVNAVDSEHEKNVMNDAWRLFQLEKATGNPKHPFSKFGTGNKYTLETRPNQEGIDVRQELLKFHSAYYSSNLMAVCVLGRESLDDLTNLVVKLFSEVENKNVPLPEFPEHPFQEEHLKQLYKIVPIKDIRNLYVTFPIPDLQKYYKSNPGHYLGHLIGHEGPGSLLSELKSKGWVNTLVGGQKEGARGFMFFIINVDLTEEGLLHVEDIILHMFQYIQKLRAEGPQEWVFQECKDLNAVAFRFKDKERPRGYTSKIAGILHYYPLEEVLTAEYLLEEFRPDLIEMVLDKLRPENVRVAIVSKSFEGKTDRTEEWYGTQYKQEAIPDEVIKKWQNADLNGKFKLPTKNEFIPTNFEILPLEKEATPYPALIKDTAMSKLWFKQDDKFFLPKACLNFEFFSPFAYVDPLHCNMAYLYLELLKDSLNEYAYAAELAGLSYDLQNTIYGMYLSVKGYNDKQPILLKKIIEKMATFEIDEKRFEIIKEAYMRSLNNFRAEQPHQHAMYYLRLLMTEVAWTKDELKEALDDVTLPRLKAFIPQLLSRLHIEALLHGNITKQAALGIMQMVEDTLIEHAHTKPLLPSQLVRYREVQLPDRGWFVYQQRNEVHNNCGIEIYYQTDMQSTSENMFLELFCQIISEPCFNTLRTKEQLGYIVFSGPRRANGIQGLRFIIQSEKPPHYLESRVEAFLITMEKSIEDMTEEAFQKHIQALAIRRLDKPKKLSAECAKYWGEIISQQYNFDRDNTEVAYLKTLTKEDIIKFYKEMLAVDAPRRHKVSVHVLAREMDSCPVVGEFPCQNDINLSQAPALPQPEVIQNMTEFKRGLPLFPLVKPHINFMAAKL

Insulin-degrading enzyme [4] = biological target: T1, Insulin-degrading enzyme; assay: activators of endogenous IDE in HEK cells, dose response, cell-based, fluorescence polarization (AID 588439); type: functional
INS1 = assay: beta cell apoptosis inhibitors, cytokine rescue, dose response, luminescence, retest (AID 449756); type: functional, cell-based; settings: Rattus norvegicus;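 note: cell death triggered by IL-1 beta plus TNF-alpha plus IFN-gamma mixture; protective hits raise ATP signal compared with cytokine alone wells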
[5] = biological target: ATP-binding cassette sub-family B member 6 (Homo sapiens, UniProt Q9NP58); assay: ABCB6 transporter inhibitors, dose response, K562-ABCB6 cells, flow cytometry, cherry pick 1 (AID 623955); type: functional; settings: read-out: EC50_MICROM
[6] = Shn3 3'UTR reporter inhibitors, dose response, cell-based, Clone20 osteoblasts, firefly luciferase, cherry-picked (AID 624132); type: functional;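 note: firefly luciferase luminescence from reporter carrying the Shn3 3'UTR in osteoblasts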
[7] = biological target: Heat shock protein HSP 90-alpha (Homo sapiens, UniProt P07900); type: functional, organism-based
[8] = biological target: NACHT, LRR and PYD domains-containing protein 3 (Homo sapiens, UniProt Q96P20); assay: NALP3 inhibitors in yeast, dose response, luminescent (AID 488799); type: functional
[9] = HepG2 cell cytotoxicity, dose response, cytotoxicity control for Shn3 inhibitor project, CellTiter-Glo, cherry-picked (AID 624134); type: functional, cell-based
[10] = Luminescence Cell-Based Dose Retest to Confirm Inhibitors of Cancer Stem Cells. [Related pubchem assays (depositor defined):AID2717, AID2721]; type: functional; settings: Homo sapiens
[11] = biological target: T2, Replicative DNA helicase DnaB (Mycobacterium tuberculosis, UniProt P9WMR3); assay: DnaB intein splicing inhibitors, dose response, biochemical, cell-free fluorescence (AID 449749); type: functional
T2 sequence (P9WMR3 whole entry): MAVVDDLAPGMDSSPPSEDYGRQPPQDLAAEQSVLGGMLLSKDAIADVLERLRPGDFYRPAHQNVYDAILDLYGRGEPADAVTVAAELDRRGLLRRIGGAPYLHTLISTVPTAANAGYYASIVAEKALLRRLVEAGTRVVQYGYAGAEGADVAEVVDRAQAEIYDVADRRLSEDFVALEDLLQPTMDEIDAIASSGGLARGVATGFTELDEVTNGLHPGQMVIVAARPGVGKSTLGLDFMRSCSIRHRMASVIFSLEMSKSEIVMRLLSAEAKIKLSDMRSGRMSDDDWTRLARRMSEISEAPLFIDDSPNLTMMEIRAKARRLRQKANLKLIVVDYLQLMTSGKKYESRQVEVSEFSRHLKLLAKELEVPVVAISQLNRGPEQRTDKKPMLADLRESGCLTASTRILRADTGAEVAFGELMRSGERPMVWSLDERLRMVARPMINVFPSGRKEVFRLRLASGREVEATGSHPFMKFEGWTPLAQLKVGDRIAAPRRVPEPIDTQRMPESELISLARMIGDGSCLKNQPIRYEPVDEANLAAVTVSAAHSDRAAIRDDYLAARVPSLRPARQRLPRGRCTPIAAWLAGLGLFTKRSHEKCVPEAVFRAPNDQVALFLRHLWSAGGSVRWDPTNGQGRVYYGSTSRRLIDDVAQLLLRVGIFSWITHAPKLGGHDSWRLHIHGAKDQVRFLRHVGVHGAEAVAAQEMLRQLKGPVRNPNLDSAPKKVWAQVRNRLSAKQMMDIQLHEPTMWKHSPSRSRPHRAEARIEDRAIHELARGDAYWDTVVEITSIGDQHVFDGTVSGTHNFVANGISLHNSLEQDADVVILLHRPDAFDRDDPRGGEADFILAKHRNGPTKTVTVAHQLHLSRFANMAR

Beta Lactamase = Beta Lactamase (Pseudomonas aeruginosa, UniProt Q932Y6); assay: beta-lactamase reporter inhibitor potency, dose response, artefact control for TLR9-MyD88 binding inhibitor project, BLA reporter cells, FRET fluorescence (AID 588341); type: cell-based;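 note: cell based assay in CHO-K1 cells stably expressing beta-lactamase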
Protein RecA = biological target: T3, Protein RecA (Mycobacterium tuberculosis, UniProt P9WHJ3); assay: Fluorescence Cell-Free Homogeneous Dose Retest to Identify Inhibitors of RecA-Intein Splicing Activity. [Related pubchem assays (depositor defined):AID2097, AID2223, AID489010, AID492950]; type: functional
T3 sequence (P9WHJ3 whole entry): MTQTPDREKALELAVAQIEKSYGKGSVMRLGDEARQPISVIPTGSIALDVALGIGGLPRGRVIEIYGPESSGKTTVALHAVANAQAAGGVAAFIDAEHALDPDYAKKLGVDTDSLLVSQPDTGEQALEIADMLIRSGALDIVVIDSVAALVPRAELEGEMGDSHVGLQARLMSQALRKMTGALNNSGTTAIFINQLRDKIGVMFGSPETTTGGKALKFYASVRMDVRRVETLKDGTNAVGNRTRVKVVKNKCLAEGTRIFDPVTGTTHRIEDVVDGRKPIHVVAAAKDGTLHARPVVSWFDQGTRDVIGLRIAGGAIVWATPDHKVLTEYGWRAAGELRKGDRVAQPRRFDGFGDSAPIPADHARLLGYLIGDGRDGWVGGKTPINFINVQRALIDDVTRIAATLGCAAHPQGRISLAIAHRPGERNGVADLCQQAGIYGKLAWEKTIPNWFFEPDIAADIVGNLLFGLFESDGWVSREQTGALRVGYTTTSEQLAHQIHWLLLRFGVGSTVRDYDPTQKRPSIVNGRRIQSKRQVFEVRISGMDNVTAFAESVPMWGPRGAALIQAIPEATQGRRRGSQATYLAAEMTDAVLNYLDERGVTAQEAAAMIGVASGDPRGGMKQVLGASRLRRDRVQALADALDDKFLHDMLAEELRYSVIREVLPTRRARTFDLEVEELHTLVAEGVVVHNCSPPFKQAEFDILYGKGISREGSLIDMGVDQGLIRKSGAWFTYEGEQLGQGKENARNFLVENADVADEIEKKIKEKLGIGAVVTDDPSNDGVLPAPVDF

[12] = control 3'UTR Renilla luciferase suppression, dose response, counter-screen for Shn3 inhibitor project, cell-based, Clone20-Shn3RL, cherry-picked (AID 624133); type: functional
CHO = assay: cytotoxicity in TLR9-MyD88 CHO cells, dose response, cytotoxicity control for TLR9-MyD88 binding inhibitor project, cell-based, luminescence (AID 588339); type: functional, hamster; settings: Cricetulus griseus;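 note: CHO cells stably coexpressing TLR9 and MyD88 fusions from primary screen; compound exposure lasted 48 hours before viability readout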
Orexin receptor type 2 [13] = biological target: T4, Orexin receptor type 2 (Homo sapiens, UniProt O43614); assay: Counterscreen assay for antagonists of the orexin 1 receptor (OX1R; HCRTR1): Fluorescence-based cell-based dose response assay for antagonists of the orexin 2 receptor (OX2R; HCRTR2), run by assay provider.; type: functional
[14] = (§1) Counterscreen for antagonists of the orexin 1 receptor (OX1R; HCRTR1): Fluorescence-based cell-based high throughput dose response assay to identify antagonists of the parental CHO cell line. [Related pubchem assays (depositor defined):AID434989, AID435008, AID463079, AID485270, AID492963, AID492964, AID492965, AID493232, AID504699, AID504701]; type: functional
[15] = Luminescence Cell-Based Dose Response HTS to Identify Activators of Luciferase Translation or Activity in H4 […] Cells. [Related pubchem assays: 1829 (Project Summary), 1814 (Primary HTS)]; type: functional
[16] = Luminescence Cell-Based Dose Response to Identify Activators of Luciferase Translation or Activity in H4-C Neuroglioblastoma Cells. [Related pubchem assays: 1829 (Project Summary), 1814 (Primary HTS)]; type: functional
CHO-K1 = assay: as §1, with “Homogeneous time resolved fluorescence (HTRF)-based” for “Fluorescence-based”, “cell-based” for “cell-based high throughput”, “CHO-K1” for “CHO”; type: functional; settings: Cricetulus griseus;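 note: potency for inhibition of ATP-stimulated IP1 production as antagonists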
[17] = biological target: T5, Orexin/Hypocretin receptor type 1 (Homo sapiens, UniProt O43613); assay: (§2) Fluorescence-based cell-based high throughput dose response assay for antagonists of the orexin 1 receptor (OX1R; HCRTR1). [Related pubchem assays (depositor defined):AID434989, AID435008, AID463079, AID485270, AID492963, AID492964, AID492965, AID493232, AID504717, AID504718]; type: functional
T5 sequence (O43613 whole entry): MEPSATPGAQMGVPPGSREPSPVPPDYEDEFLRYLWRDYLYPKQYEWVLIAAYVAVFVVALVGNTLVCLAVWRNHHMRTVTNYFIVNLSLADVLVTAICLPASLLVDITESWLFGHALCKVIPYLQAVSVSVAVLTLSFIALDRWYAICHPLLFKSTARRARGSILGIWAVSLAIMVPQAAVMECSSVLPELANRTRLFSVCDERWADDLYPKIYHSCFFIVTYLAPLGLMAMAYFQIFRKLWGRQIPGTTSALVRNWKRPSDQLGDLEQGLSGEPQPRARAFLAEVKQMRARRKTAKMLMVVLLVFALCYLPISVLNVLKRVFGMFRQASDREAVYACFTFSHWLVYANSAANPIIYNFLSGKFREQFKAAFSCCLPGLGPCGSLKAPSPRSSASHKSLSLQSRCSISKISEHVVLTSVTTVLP

[18] = biological target: T5, Orexin/Hypocretin receptor type 1; assay: as §2, with “Homogeneous Time Resolved Fluorescence (HTRF)-based” for “Fluorescence-based”; type: functional
Orexin receptor type 2 [19] = biological target: T4, Orexin receptor type 2; assay: Counterscreen assay for antagonists of the orexin 1 receptor (OX1R; HCRTR1): Homogeneous Time Resolved Fluorescence (HTRF)-based cell-based dose response assay for antagonists of the orexin 2 receptor (OX2R; HCRTR2), run by assay provider.; type: functional
[20] = Luminescence Cell-Based Dose Confirmation to Identify Activators of 5'UTR Stem-Loop Driven Alpha-Synuclein mRNA Translation in H4 Neuroglioblastoma Cells. [Related pubchem assays: 1829 (Project Summary), 1814 (Primary HTS)]; type: functional
[21] = Luminescence Cell-Based Dose Response to Identify Activators of 5'UTR Stem-Loop Driven Prion Protein mRNA Translation in H4-C Neuroglioblastoma Cells. [Related pubchem assays: 1829 (Project Summary), 1814 (Primary HTS)]; type: functional
H4 = assay: Luminescence Cell-Based Dose Response HTS to Identify Activators of 5'UTR Stem-Loop Driven Prion Protein mRNA Translation in H4 Neuroglioblastoma Cells. [Related pubchem assays: 1829 (Project Summary), 1814 (Primary HTS)]; type: functional; settings: Homo sapiens
[22] = THP-1 cell cytotoxicity, cytotoxicity control, set 6 (AID 602433); type: functional; settings: Mycobacterium tuberculosis

T4 sequence (O43614 whole entry): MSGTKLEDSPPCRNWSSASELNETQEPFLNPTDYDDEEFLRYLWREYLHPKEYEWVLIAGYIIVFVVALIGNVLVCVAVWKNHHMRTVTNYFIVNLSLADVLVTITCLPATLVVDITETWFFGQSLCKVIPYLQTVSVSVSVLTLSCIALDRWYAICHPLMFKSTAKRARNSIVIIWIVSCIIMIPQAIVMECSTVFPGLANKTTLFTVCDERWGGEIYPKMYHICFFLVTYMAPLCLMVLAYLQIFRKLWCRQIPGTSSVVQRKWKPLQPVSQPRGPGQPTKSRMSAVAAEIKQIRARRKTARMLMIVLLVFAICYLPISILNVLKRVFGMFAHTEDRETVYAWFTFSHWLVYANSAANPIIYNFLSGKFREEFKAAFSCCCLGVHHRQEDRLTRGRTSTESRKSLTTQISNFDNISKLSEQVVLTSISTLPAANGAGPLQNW
Chain of ATP-binding cassette sub-family B member 6 (Q9NP58 whole entry): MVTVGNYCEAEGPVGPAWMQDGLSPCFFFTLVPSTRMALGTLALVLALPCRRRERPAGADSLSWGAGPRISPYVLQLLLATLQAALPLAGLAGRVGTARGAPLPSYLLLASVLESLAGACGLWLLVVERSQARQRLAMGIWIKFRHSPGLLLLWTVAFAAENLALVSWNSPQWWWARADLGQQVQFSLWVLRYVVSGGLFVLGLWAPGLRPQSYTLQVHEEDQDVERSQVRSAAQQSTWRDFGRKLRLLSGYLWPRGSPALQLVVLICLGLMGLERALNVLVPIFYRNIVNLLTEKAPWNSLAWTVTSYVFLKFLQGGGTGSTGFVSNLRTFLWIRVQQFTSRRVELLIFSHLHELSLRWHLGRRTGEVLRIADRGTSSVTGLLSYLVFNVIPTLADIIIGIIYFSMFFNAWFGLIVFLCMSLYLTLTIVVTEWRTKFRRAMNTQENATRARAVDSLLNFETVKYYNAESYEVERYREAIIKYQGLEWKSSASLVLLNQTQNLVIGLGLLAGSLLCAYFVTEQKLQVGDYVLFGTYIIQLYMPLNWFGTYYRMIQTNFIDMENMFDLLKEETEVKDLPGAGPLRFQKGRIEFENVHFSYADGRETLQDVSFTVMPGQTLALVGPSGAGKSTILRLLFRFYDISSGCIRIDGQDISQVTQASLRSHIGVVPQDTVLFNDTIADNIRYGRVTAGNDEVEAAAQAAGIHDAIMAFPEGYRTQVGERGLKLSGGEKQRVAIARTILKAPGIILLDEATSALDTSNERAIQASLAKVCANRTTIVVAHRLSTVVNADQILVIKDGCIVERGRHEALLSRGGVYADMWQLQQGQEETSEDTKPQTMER
Chain of NACHT, LRR and PYD domains-containing protein 3 (Q96P20 whole entry, the tested form may be a part): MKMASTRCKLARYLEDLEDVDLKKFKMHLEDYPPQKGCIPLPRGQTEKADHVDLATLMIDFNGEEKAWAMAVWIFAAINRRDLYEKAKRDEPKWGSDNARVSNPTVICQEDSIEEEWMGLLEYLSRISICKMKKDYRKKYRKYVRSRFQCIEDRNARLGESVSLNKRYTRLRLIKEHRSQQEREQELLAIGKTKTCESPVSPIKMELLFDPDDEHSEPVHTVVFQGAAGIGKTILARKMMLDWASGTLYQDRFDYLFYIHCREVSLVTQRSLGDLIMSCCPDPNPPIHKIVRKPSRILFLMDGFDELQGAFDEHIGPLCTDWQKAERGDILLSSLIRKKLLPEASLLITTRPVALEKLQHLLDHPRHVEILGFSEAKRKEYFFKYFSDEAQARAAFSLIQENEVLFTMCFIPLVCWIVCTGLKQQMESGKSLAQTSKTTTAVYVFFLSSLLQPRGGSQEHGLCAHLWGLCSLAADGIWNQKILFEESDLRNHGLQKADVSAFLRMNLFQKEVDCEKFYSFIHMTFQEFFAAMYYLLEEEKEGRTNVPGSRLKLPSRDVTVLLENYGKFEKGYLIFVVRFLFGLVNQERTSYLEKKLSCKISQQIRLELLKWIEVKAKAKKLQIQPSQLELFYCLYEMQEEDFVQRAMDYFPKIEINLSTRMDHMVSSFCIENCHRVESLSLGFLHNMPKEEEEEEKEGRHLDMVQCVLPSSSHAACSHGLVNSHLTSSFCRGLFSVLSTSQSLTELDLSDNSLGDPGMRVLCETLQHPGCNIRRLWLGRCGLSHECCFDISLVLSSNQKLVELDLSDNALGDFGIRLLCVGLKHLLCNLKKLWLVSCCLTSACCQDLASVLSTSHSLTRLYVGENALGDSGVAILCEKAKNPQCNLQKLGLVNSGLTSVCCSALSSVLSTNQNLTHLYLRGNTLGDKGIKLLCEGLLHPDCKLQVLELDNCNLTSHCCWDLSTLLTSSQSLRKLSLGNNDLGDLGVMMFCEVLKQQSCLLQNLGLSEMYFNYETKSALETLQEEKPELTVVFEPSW
Chain of Beta Lactamase (Q932Y6 whole entry): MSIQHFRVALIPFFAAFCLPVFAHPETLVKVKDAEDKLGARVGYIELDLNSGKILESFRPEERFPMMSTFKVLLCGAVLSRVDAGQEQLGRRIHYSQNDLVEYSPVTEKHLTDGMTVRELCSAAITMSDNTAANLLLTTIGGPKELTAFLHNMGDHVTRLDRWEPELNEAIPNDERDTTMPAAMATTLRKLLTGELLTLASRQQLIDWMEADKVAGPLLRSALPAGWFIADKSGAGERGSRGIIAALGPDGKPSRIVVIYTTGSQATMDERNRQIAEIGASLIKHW

COc1ccc(CCNC(=O)COC(=O)C2CC2C)cc1OC (stereo not drawn)
inactive: IC50 (HEK293 [1]) > 89.2 µM | EC50 (HEK293 [2]) > 55.9 µM | EC50 (Insulin-degrading enzyme [3]) > 54.7 µM | EC50 (Insulin-degrading enzyme [4]) > 54.7 µM

Cc1ccc(NC(=O)c2nc(S(=O)(=O)Cc3ccccc3)ncc2Cl)cc1
active: AC50 (INS1) 9.27 µM | EC50 [5] 34.7 µM | AC50 [6] 3.42 µM | AC50 [7] 3.21 µM | IC50 [8] 3.58 µM | AC50 [9] 24.6 µM | AC50 [10] 2.57 µM | AC50 [11] 23 µM | IC50 (Beta Lactamase) 8.3 µM | EC50 (Protein RecA) 0.88 µM | AC50 [12] 6.01 µM | IC50 (CHO) 3.31 µM

O=C(Nc1ccc2sc3ccccc3c(=O)c2c1)c1ccccc1Cl
active: EC50 [15] 0.297 µM | EC50 [16] 0.454 µM | IC50 [17] > 5.53 µM | IC50 [18] 3.26 µM | IC50 (Orexin receptor type 2 [19]) 1.54 µM | EC50 [20] 0.232 µM | EC50 [21] 0.3 µM | EC50 (H4) 0.199 µM
inactive: IC50 (Orexin receptor type 2 [13]) > 88.8 µM | IC50 [14] > 49.8 µM | IC50 (CHO-K1) > 66.2 µM

O=C(c1ccc(CNc2c(N3CCOCC3)c(=O)c2=O)cc1)N1CCC(c2ccccc2)CC1
active: CC50 [22] > 100 µM

From ChEMBL document CHEMBL1201862, “PubChem BioAssay data set” (2004)
